This note sets out measurements from patent publication US20040171680A1, “Treating Syndrome X with substituted tetralins and indanes” (priority 2002, published 2004).

Experiment [1] addresses T1, PPARδ (Homo sapiens, UniProt Q03181).
T1 construct: a Gal4-Luciferase reporter is co-transfected
T1 sequence (Q03181 171-441 limits assumed): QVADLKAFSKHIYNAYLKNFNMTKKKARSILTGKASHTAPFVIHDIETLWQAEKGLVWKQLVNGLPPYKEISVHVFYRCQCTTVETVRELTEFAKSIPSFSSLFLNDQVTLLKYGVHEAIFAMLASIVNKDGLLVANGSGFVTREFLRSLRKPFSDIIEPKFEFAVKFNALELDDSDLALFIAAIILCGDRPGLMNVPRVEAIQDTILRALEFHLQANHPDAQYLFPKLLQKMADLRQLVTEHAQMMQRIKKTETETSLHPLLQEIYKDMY
The experiment is described as follows: Transfection Assay for PPARδ Receptors (PPAR-Gal4 / Gal4-Luciferase reporter in HEK293 cells). Type of experiment: cell-based. The settings on record: values in square brackets. The procedure, abridged: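 HEK293 cells co-transfected with PPAR-Gal4 receptor and Gal4-luciferase reporter, then moved into 5% charcoal-treated FBS medium. Compounds applied for 24 h at 37 °C, 5% CO2; luciferase activity read with Steady-Glo.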
A general note: A reporter such as luciferase makes a cellular process visible.

The target in experiment [2] is T2, PPARα (Rattus norvegicus, UniProt P37230).
T2 construct: H4IIE rat hepatoma cell line was obtained from ATCC; host or cells: H4IIE rat hepatoma cells
T2 sequence (P37230 1-468): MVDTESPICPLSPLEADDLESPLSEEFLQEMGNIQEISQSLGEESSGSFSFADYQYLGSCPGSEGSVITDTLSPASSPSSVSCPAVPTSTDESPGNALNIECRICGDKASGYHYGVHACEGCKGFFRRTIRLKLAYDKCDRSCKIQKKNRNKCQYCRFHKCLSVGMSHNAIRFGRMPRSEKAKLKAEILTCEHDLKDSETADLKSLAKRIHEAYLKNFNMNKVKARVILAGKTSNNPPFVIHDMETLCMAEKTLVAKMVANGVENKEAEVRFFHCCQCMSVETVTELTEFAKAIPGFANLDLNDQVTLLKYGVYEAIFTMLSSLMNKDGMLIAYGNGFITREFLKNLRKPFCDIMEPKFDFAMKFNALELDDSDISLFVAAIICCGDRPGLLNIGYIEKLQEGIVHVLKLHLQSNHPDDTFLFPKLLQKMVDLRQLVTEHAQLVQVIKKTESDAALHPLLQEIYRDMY
The experiment is described as follows: HD bDNA Assay (HD gene induction). As to conditions: in section F; target not named there, values match the PPARα column; read-out: EC50. Type of experiment: cell-based. The procedure, abridged: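 H4IIE rat hepatoma cells (~100,000/well) treated 24 hours at 37° C in low-serum medium (5% charcoal/dextran-treated calf serum) with compounds. HD mRNA quantified by branched DNA luminescence assay; EC50's from sigmoidal non-linear regression.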

In experiment [3] the test system is ob/ob mice. The experiment is described as follows: 11 day oral dosing in female ob/ob mice. As to conditions: 1.0 mpk, once daily oral gavage for 11 days, % change compared to vehicle. The class given is in vivo. The method, then: 11 Day Dosing of Example in Female, 7 week Old ob/ob Mice
(Female ob/ob mice (C57 BL/6J-Lep^ob, Jackson Labs, Bar Harbor, Me.), 7 weeks of age, were housed two per cage in solid-bottomed shoe box cages. Room temperature was maintained at 68-72° F. and humidity at 50-65%. Room lighting was on a 12-hour light/12-hour dark cycle. Mice were fed a certified NIH Rat and Mouse diet #5K50 (P M I Nutrition Int'l, St. Louis, Mo., via W. F. Fisher and Son, Inc., Bound Brook, N.J.). Food and water were supplied ad libitum.
The compound was prepared as suspensions in 0.5% hydroxypropylmethylcellulose (Dow Chemical, Midland, Mich.). The dosing volume was 10 mL/kg of body weight. Female ob/ob diabetic mice (8/group) were orally gavaged once daily for 11 days with either 0.5% methylcellulose in dH2O (vehicle) or PPAR agonist at 0.003, 0.01, 0.03, 0.1, 0.3, 1 mg/kg/day. Body weight was measured in the mornings on Day 1, prior to dosing, and on Day 12 before bleeding. 18 hours after the final dose for each group, the mice were anesthetized with CO2/O2 (70%:30%) and bled by retro-orbital sinus puncture into micro-tubes containing clog activator and then put in ice. […] Serum glucose and triglycerides were determined by using COBAS Mira Plus blood chemistry analyzer (Roche Diagnostics, N.J.). Serum insulin and free fatty acids were measured by using ALPCO insulin ELISA kit and Wako NEFA kit, respectively. […]

Each structure is given as a SMILES string.

As for `CCN(C(=O)Nc1ccc(OC(F)(F)F)cc1)C1CCc2cc(SC(C)(C)C(=O)O)c(F)cc2C1` (stereo not drawn) [Example 50, 2-{6-[1-Ethyl-3-(4-trifluoromethoxyphenyl)ureido]-3-fluoro-5,6,7,8-tetrahydronaphthalen-2-ylsulfanyl}-2-methylpropionic acid], the EC50 in experiment [1] was above 3000 nM; in experiment [2], 10 nM. The “Δ Plasma TG” value in experiment [3] is recorded as −86%.

The term EC50 denotes the midpoint of the concentration-response curve.
